The values that follow come from US9409905B2, “Antibacterial compounds and methods for use” (PTC THERAPEUTICS, INC., priority 2011, dated 2016).

In general, MIC refers to the lowest concentration that inhibits growth of the organism.

Converted amounts (≈) assume the structure as drawn.

One test concerns E. coli ELZ4000. Put plainly: Antibacterial activity, MIC, multi-drug resistant clinical isolate (Table 3). Type of test: cell-based. The settings on record: Escherichia coli, ELZ4000, read-out: MIC ELZ4000. An excerpt:
(§1) The antibacterial activity from a microbroth dilution method may be presented as the minimum inhibitory concentration (MIC in μg/mL). The MIC value is the lowest concentration of drug which prevents macroscopically visible growth under test conditions.
(§2) Antibacterial activity of test compounds against E. coli ELZ4000 and E. coli ELZ4251 multi-drug resistant clinical isolates is shown in Table 3.

The subject of another test is E. coli ELZ4251. The description is as above. The format is cell-based. The note with it: Escherichia coli.
From the text: as §1, §2

Test [1] deals with Pseudomonas aeruginosa (P. aeruginosa) 27853. The experiment in a line: Antibacterial activity, MIC (Table 5). The settings on record: P. aeruginosa 27853, read-out: MIC, 27853. Type of test: cell-based. An outline of the steps: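 Using a microbroth dilution format, the minimum inhibitory concentration was recorded as the lowest tested concentration that stopped visible bacterial growth, expressed in μg/mL.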

Another test relates to E. coli LZ3111. Put plainly: Antibacterial activity, MIC, quinolone resistant strain (Table 2). The format is cell-based. The settings on record: Escherichia coli, LZ3111, read-out: MIC LZ3111. An outline of the steps:
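Growth inhibition assessed by serial drug dilution in broth; endpoint was absence of macroscopically visible growth, reported as MIC, μg/mL.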

Test [2] has as its system Escherichia coli (E. coli) BAS849. The experiment in a line: Antibacterial activity, microbroth dilution MIC (Table 1). The note with it: microbroth dilution, super sensitive Gram-negative E. coli BAS849, read-out: MIC, BAS849. The format is cell-based. An outline of the steps:
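Values are MICs (μg/mL): the smallest drug amount at which macroscopically visible bacterial growth is absent under assay conditions, from a microdilution method in broth.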
(In general: Dilution methods test growth across graded concentrations, often in twofold steps.)

The subject of test [3] is Staphylococcus aureus (S. aureus) 29213. The test is described as above. The format is cell-based. The note with it: microbroth dilution, Gram-positive S. aureus 29213, read-out: MIC, 29213. An outline of the steps:
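In a microbroth dilution test, the minimum inhibitory concentration was defined as the lowest compound level preventing growth seen by eye, and was given in μg/mL.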

The next test has as its system E. coli 25922. The description is as above. The format is cell-based, Escherichia coli. The note with it: Escherichia coli; microbroth dilution; control Gram-negative E. coli 25922 strain; read-out: MIC, 25922. In a few lines: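 Using broth microdilution, MIC endpoints (μg/mL) mark where visible growth no longer appears; the panel spans sensitive and control Gram-negative strains plus a Gram-positive strain.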

As to `CCc1c(-c2ccc3ncccc3c2)[nH]c(=O)c(C(=O)O)c1O` [Cpd 20, 5-ethyl-4-hydroxy-2-oxo-6-(quinolin-6-yl)-1,2-dihydropyridine-3-carboxylic acid], the MIC in the test on E. coli ELZ4000 fell in the range of 12.5 to 150 µg/mL (≈ 40.3 to 483 µM); against E. coli ELZ4251, 3.5 to 12.5 µg/mL (≈ 11.3 to 40.3 µM); in test [1] it was 12.5 to 150 µg/mL (≈ 40.3 to 483 µM); with E. coli LZ3111, 3.5 to 12.5 µg/mL (≈ 11.3 to 40.3 µM); in test [2], 1 to 3.5 µg/mL (≈ 3.22 to 11.3 µM); in test [3], 12.5 to 150 µg/mL (≈ 40.3 to 483 µM). For the same compound, the minimal inhibitory concentration (MIC) in the test on E. coli 25922 fell in the range of 12.5 to 150 µg/mL (≈ 40.3 to 483 µM).
For the compound `CCc1c(-c2ccc3c(c2)cc(CN2CC4CC2CN4)n3C)[nH]c(=O)c(C(=O)O)c1O` (stereo not shown) [Cpd 182, 6-(2-(2,5-diazabicyclo[2.2.1]heptan-2-ylmethyl)-1-methyl-1H-indol-5-yl)-5-ethyl-4-hydroxy-2-oxo-1,2-dihydropyridine-3-carboxylic acid], the MIC in the test with E. coli ELZ4000 lay within 12.5 to 150 µg/mL (≈ 29.6 to 355 µM); in the test on E. coli ELZ4251, 12.5 to 150 µg/mL (≈ 29.6 to 355 µM); in test [1], 12.5 to 150 µg/mL (≈ 29.6 to 355 µM); with E. coli LZ3111 it was 3.5 to 12.5 µg/mL (≈ 8.28 to 29.6 µM); in test [2], 1 to 3.5 µg/mL (≈ 2.37 to 8.28 µM); in test [3], 12.5 to 150 µg/mL (≈ 29.6 to 355 µM). In addition, the minimal inhibitory concentration (MIC) in the test with E. coli 25922 was in the range of 12.5 to 150 µg/mL (≈ 29.6 to 355 µM).
For the compound `CCc1c(-c2ccc3c(c2)cc(CN(C)C2CCCC2)n3C)[nH]c(=O)c(C(=O)O)c1O.Cl` [Cpd 211, 6-(2-((cyclopentyl(methyl)amino)methyl)-1-methyl-1H-indol-5-yl)-5-ethyl-4-hydroxy-2-oxo-1,2-dihydropyridine-3-carboxylic acid hydrochloride], the minimal inhibitory concentration (MIC) is 12.5 to 150 µg/mL in the test with E. coli ELZ4000; 12.5 to 150 µg/mL in the test with E. coli ELZ4251; 12.5 to 150 µg/mL in test [1]; 3.5 to 12.5 µg/mL with E. coli LZ3111; less than 1 µg/mL in test [2]; 3.5 to 12.5 µg/mL in test [3]. In addition, the MIC with E. coli 25922 lay in the range of 1 to 3.5 µg/mL.
Consider `CCc1c(-c2ccc3c(c2)cc(CNCc2ccccn2)n3C)[nH]c(=O)c(C(=O)O)c1O.Cl` [Cpd 219, 5-ethyl-4-hydroxy-6-(1-methyl-2-((pyridin-2-ylmethylamino)methyl)-1H-indol-5-yl)-2-oxo-1,2-dihydropyridine-3-carboxylic acid hydrochloride], for which the MIC in the test with E. coli ELZ4000 is 12.5 to 150 µg/mL; in the test with E. coli ELZ4251, 12.5 to 150 µg/mL; in test [1] it was 12.5 to 150 µg/mL; in the test on E. coli LZ3111 it was 3.5 to 12.5 µg/mL; in test [2], less than 1 µg/mL; in test [3], 1 to 3.5 µg/mL. Further, the MIC with E. coli 25922 lay in the range of 1 to 3.5 µg/mL.
Consider `CCc1c(-c2ccc3c(c2)cc(CNCC2CCOCC2)n3C)[nH]c(=O)c(C(=O)O)c1O.Cl` [Cpd 227, 5-ethyl-4-hydroxy-6-(1-methyl-2-(((tetrahydro-2H-pyran-4-yl)methylamino)methyl)-1H-indol-5-yl)-2-oxo-1,2-dihydropyridine-3-carboxylic acid hydrochloride], for which the MIC in the test on E. coli ELZ4000 was 12.5 to 150 µg/mL; in the test on E. coli ELZ4251, 12.5 to 150 µg/mL; in test [1], 12.5 to 150 µg/mL; with E. coli LZ3111, 12.5 to 150 µg/mL; in test [2], less than 1 µg/mL; in test [3], 3.5 to 12.5 µg/mL. Further, the MIC in the test on E. coli 25922 was in the range of 1 to 3.5 µg/mL.
Regarding `CCc1c(-c2ccc3c(c2)cc(CN2CCCNCC2)n3C)[nH]c(=O)c(C(=O)O)c1O.Cl.Cl` [Cpd 239, 6-(2-((1,4-diazepan-1-yl)methyl)-1-methyl-1H-indol-5-yl)-5-ethyl-4-hydroxy-2-oxo-1,2-dihydropyridine-3-carboxylic acid dihydrochloride], the MIC in the test on E. coli ELZ4000 is 12.5 to 150 µg/mL; against E. coli ELZ4251, 3.5 to 12.5 µg/mL; in test [1] it was 12.5 to 150 µg/mL; in the test on E. coli LZ3111, 3.5 to 12.5 µg/mL; in test [2] it was 1 to 3.5 µg/mL; in test [3] it was 12.5 to 150 µg/mL. For the same compound, the MIC in the test with E. coli 25922 was in the range of 3.5 to 12.5 µg/mL.
`CCc1c(-c2ccc3c(c2)cc(CNC2CCCCC2)n3C)[nH]c(=O)c(C(=O)O)c1O.Cl` [Cpd 241, 6-(2-((cyclohexylamino)methyl)-1-methyl-1H-indol-5-yl)-5-ethyl-4-hydroxy-2-oxo-1,2-dihydropyridine-3-carboxylic acid hydrochloride]: the MIC in the test on E. coli ELZ4000 was 12.5 to 150 µg/mL; in the test with E. coli ELZ4251 it was 3.5 to 12.5 µg/mL; in test [1] it was 12.5 to 150 µg/mL; in the test with E. coli LZ3111, 3.5 to 12.5 µg/mL; in test [2] it was less than 1 µg/mL; in test [3] it was 3.5 to 12.5 µg/mL. The MIC in the test with E. coli 25922 was less than 1 µg/mL.
